pEC50: −log10 of the molar value. Several values for one entry are separate records, joined by “and”; a condition that tells them apart may be missing. Equal entries are not always repeated. Where two headings read alike, the source gives them in different places.
Tests used:
Drosophila OR71a = target: T1, Drosophila OR71a (Drosophila melanogaster, UniProt Q9VUK5); test: Calcium ion fluorescence (GCaMP6) assay, OR71a stable HEK293 cell line; format: cell-based; settings: for Average response / OR71a response (VUAA1-normalized) at 1 μM / OR71a response (VUAA1-normalized) at 10 μM / OR71a response (VUAA1-normalized) at 100 μM: OR71a cell line; for Average response: VUAA1-normalized response, mean of biological replicates; for activation at 1 µM / activation at 10 µM / activation at 100 µM: HEK293, read-out: OR71a response (VUAA1-normalized response)
T1 construct: expressed in transfected cells
T1 sequence (Q9VUK5 1-378): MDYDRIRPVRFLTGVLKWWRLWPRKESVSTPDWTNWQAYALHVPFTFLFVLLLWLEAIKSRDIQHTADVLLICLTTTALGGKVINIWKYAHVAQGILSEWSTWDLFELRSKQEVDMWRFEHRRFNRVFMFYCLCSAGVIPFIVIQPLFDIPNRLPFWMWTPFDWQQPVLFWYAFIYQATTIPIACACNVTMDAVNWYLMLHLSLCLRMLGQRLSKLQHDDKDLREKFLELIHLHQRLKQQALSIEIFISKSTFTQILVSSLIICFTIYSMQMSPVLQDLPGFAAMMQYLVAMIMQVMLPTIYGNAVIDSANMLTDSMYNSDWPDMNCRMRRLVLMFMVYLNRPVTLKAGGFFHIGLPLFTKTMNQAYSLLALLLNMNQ
T1 sequence (Q9VNB5 1-486 partner): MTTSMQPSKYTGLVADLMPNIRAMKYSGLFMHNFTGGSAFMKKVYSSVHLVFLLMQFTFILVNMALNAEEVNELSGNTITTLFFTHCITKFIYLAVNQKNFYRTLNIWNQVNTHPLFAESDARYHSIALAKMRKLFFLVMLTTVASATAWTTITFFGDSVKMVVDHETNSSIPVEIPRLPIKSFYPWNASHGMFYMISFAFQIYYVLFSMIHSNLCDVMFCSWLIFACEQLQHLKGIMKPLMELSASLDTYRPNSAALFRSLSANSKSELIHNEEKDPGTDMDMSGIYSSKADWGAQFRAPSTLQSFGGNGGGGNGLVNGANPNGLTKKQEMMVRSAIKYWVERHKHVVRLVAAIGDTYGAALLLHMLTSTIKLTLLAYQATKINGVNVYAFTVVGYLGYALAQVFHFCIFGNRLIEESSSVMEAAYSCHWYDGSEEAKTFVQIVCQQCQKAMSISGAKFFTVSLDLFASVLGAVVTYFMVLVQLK
How it was run: (§1)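 HEK293 lines stably expressing each Drosophila OR with GCaMP6, doxycycline-induced (1 μg/mL) 48 or 72 h. Fluorescence recorded 5 s baseline then 30 s after VOC injection at pH 7.3; ΔF=(FMAX−F0)/F0, normalized to 50 µM VUAA1 response per line, triplicate wells averaged; concentration series 0.01–100 μM.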

Drosophila OR49b = target: T2, Drosophila OR49b (Drosophila melanogaster, UniProt Q9V6H2); test: cell-based; settings: for Average response: mean of biological replicates; for activation at 1 µM / activation at 10 µM / activation at 100 µM: HEK293, read-out: OR49b response (VUAA1-normalized response)
T2 construct: expressed in transfected cells
T2 sequence (Q9V6H2 1-375): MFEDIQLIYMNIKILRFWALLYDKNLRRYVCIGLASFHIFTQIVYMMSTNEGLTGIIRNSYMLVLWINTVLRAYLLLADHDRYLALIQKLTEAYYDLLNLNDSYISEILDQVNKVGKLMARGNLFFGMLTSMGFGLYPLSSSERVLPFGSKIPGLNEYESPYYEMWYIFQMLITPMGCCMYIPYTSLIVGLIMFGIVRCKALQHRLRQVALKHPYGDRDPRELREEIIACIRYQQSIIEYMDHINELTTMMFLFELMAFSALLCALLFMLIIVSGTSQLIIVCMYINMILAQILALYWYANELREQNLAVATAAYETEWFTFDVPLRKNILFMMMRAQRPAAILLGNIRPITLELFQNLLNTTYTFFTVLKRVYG
T2 sequence (Q9VNB5 1-486 partner): T1 sequence (Q9VNB5 1-486 partner)
How it was run: as §1

[1] = concentration 1, normalized fluorescence change, values below 0.05 threshold given as 0
[2] = concentration 10, normalized fluorescence change, values below 0.05 threshold given as 0
[3] = concentration 100, normalized fluorescence change, values below 0.05 threshold given as 0
[4] = OR49b cell line, odorant cc. 1 µM
[5] = OR49b cell line, odorant cc. 10 µM
[6] = OR49b cell line, odorant cc. 100 µM
[7] = ligand concentration 1 (unit not given), 0.05 threshold, values below shown as 0
[8] = ligand concentration 10 (unit not given), 0.05 threshold, values below shown as 0
[9] = ligand concentration 100 (unit not given), 0.05 threshold, values below shown as 0
[10] = OR49b cell line, VOC concentration 1 μM
[11] = OR49b cell line, VOC concentration 10 μM
[12] = OR49b cell line, VOC concentration 100 μM
[13] = ligand concentration 1 (unit not given), threshold 0.05, below shown as 0
[14] = ligand concentration 10 (unit not given), threshold 0.05, below shown as 0
[15] = ligand concentration 100 (unit not given), threshold 0.05, below shown as 0

Compound | Average response (Drosophila OR71a; cc. 1 µM) | Average response (Drosophila OR71a; cc. 10 µM) | Average response (Drosophila OR71a; cc. 100 µM) | DF norm AVERAGE OR71a (Drosophila OR71a; [1]) | DF norm AVERAGE OR71a (Drosophila OR71a; [2]) | DF norm AVERAGE OR71a (Drosophila OR71a; [3]) | Average response (Drosophila OR49b; [4]) | Average response (Drosophila OR49b; [5]) | Average response (Drosophila OR49b; [6]) | OR71a response (VUAA1-normalized) at 1 μM (Drosophila OR71a; VOC concentration 1 μM) | OR71a response (VUAA1-normalized) at 10 μM (Drosophila OR71a; VOC concentration 10 μM) | OR71a response (VUAA1-normalized) at 100 μM (Drosophila OR71a; VOC concentration 100 μM) | activation at 1 µM (Drosophila OR71a) [%] | activation at 10 µM (Drosophila OR71a) [%] | activation at 100 µM (Drosophila OR71a) [%] | DF norm AVERAGE OR49b (Drosophila OR49b) | activation at 1 µM (Drosophila OR49b; VOC concentration 1 μM) [%] | activation at 10 µM (Drosophila OR49b; VOC concentration 10 μM) [%] | activation at 100 µM (Drosophila OR49b; VOC concentration 100 μM) [%] | DF norm AVERAGE OR71a (Drosophila OR71a; [13]) | further results
(-)-alpha-cedrene | 0.00 | 0.043 | 0.00 | 0 | 0 | 0 | 0.00 | 0.0843 | 0.00 |  |  |  |  |  |  |  |  |  |  |  | OR71a response (VUAA1-normalized response) (Drosophila OR71a; VOC concentration 1 μM): 0.00; OR71a response (VUAA1-normalized response) (Drosophila OR71a; VOC concentration 10 μM): 0.00; OR71a response (VUAA1-normalized response) (Drosophila OR71a; VOC concentration 100 μM): 0.00; OR49b response (VUAA1-normalized response) (Drosophila OR49b; VOC concentration 1 μM): 0.00; OR49b response (VUAA1-normalized response) (Drosophila OR49b; VOC concentration 10 μM): 0.0843; OR49b response (VUAA1-normalized response) (Drosophila OR49b; VOC concentration 100 μM): 0.00
CC1=CCC23CC1C(C)(C)C2CCC3C (stereo not drawn) [α-funebrene] | 0.00 | 0.00 | 0.00 |  |  |  | 0.00 | 0.00 | 0.00 | 0.00 | 0.00 | 0.00 |  |  |  |  |  |  |  |  | DF norm AVERAGE OR71a (Drosophila OR71a; [7]): 0; DF norm AVERAGE OR71a (Drosophila OR71a; [8]): 0; DF norm AVERAGE OR71a (Drosophila OR71a; [9]): 0; OR49b response (VUAA1-normalized) at 1 μM (Drosophila OR49b; [10]): 0.00; OR49b response (VUAA1-normalized) at 10 μM (Drosophila OR49b; [11]): 0.00; OR49b response (VUAA1-normalized) at 100 μM (Drosophila OR49b; [12]): 0.00; DF norm AVERAGE OR49b (Drosophila OR49b; [7]): 0; DF norm AVERAGE OR49b (Drosophila OR49b; [8]): 0; DF norm AVERAGE OR49b (Drosophila OR49b; [9]): 0
CCCCCC(C)=O [2-heptanone] | 0.08 | 0.12 | 0.05 | 0.08012 | 0.1157 | 0.05175 | 0.00 | 0.00 | 0.02 |  |  |  | 8 | 12 | 5 | 0 | 0 | 0 | 0 |  | 
C=C1CC/C=C(\C)CC[C@@H]2[C@@H]1CC2(C)C [(-)-trans-caryophyllene] | 0.0273 | 0.00 | 0.00 | 0 | 0 | 0 | 0.00 | 0.00 | 0.00 |  |  |  | 0 | 0 | 0 | 0 | 0 | 0 | 0 |  | 
C=C1CCC2(C(C)C)CC12 (stereo not drawn) [sabinene] | 0.00 | 0.00 | 0.0235 |  |  |  | 0.00 | 0.00 | 0.0368 | 0.00 | 0.00 | 0.00 |  |  |  |  |  |  |  | 0 | DF norm AVERAGE OR71a (Drosophila OR71a; [14]): 0; DF norm AVERAGE OR71a (Drosophila OR71a; [15]): 0; OR49b response (VUAA1-normalized) at 1 μM (Drosophila OR49b; [10]): 0.00; OR49b response (VUAA1-normalized) at 10 μM (Drosophila OR49b; [11]): 0.00; OR49b response (VUAA1-normalized) at 100 μM (Drosophila OR49b; [12]): 0.00; DF norm AVERAGE OR49b (Drosophila OR49b; [13]): 0; DF norm AVERAGE OR49b (Drosophila OR49b; [14]): 0; DF norm AVERAGE OR49b (Drosophila OR49b; [15]): 0
C=Cc1ccccc1 [styrene] | 0.027 | 0.0458 | 0.00724 |  |  |  |  |  |  | 0.00 | 0.00 | 0.00 |  |  |  |  |  |  |  |  | DF norm AVERAGE OR71a (Drosophila OR71a; [7]): 0; DF norm AVERAGE OR71a (Drosophila OR71a; [8]): 0; DF norm AVERAGE OR71a (Drosophila OR71a; [9]): 0; pEC50 (Drosophila OR49b; AVERAGE EC50, OR49b, printed with 95% confidence interval, matches the average LOG EC50): 4.68; pEC50 (Drosophila OR49b; EC50 (fitted parameter), OR49b, fit of each biological replicate): 4.78 and 4.76; pEC50 (Drosophila OR49b; EC50, AVERAGE, OR49b, arithmetic average of 5 replicate EC50): 4.60; pEC50 (Drosophila OR49b; LOG EC50 (fitted parameter), OR49b, fit of each biological replicate, log of EC50, unit inferred): 4.33; pEC50 (Drosophila OR49b; OR49b cell line, fitted Hill equation, Hill coefficient constrained to 1, maximal response max 1, read-out: EC50): 4.68; EC50 (Drosophila OR49b; OR49b, average of 5 biological replicates, read-out: LOG EC50, AVERAGE (converted)): 21.1 µM; EC50 (Drosophila OR49b; OR49b, fit of each biological replicate, log of EC50, unit inferred, read-out: LOG EC50 (fitted parameter) (converted)): 34.6 µM and 16.6 µM and 17.3 µM and 8.95 µM; pEC50 (Drosophila OR49b; OR49b, fit of each biological replicate, read-out: EC50 (fitted parameter)): 4.46 and 4.33 and 5.05; pEC50 (Drosophila OR49b; OR49b, fit of the averaged curve, read-out: EC50, FITTED AVERAGE CURVE): 4.61
CCCC(=O)OCC [ethyl butyrate] | 0.00 | 0.00 | 0.00 |  |  |  | 0.00 | 0.00 | 0.00 |  |  |  | 0 | 0 | 0 |  | 0 | 0 | 0 | 0 | DF norm AVERAGE OR71a (Drosophila OR71a; [14]): 0; DF norm AVERAGE OR71a (Drosophila OR71a; [15]): 0; DF norm AVERAGE OR49b (Drosophila OR49b; [13]): 0; DF norm AVERAGE OR49b (Drosophila OR49b; [14]): 0; DF norm AVERAGE OR49b (Drosophila OR49b; [15]): 0
CCCCC(C)O (stereo not drawn) [2-hexanol] | 0.00 | 0.00 | 0.0351 | 0 | 0 | 0 | 0.00 | 0.00 | 0.0161 |  |  |  | 0 | 0 | 0 | 0 | 0 | 0 | 0 |  | 
CCCCCCCCCC=O [decanal] | 0.00 | 0.00 | 0.0139 |  |  |  | 0.00 | 0.00 | 0.09 |  |  |  | 0 | 0 | 0 |  | 0 | 0 | 9 | 0 | DF norm AVERAGE OR71a (Drosophila OR71a; [14]): 0; DF norm AVERAGE OR71a (Drosophila OR71a; [15]): 0; DF norm AVERAGE OR49b (Drosophila OR49b; [13]): 0; DF norm AVERAGE OR49b (Drosophila OR49b; [14]): 0; DF norm AVERAGE OR49b (Drosophila OR49b; [15]): 0.08966

From paper PMC10709440, “High-throughput ligand profile characterization in novel cell lines expressing seven heterologous insect olfactory receptors for the detection of volatile plant biomarkers” (Scientific Reports, 2023)
